Results: US10736829B2, “Use of certain hydroxybenzoic acid amides for masking unpleasant taste impressions” (SYMRISE AG, priority 2015, dated 2020)

Legend:
Format in all cases: in vivo
[1] = Masking of the bitter taste of peptides, panel of experts (n=15), randomized duo-tests: Leu-Trp (comparative example); conditions: for Reduction of bitterness (%): Leu-Trp 0.2% (w/v) (comparative peptide), 100 ppm compound, negative = less bitter; for Bitter taste peptide solution + 100 ppm compound: Leu-Trp 0.2% (w/v) in water (comparative peptide), scale 0 to 10
Protocol: (§1) The masking effect of 2,4-Dihydroxy-N-[(4-hydroxy-3-methoxy-phenyl)methyl]benzamide (compound 1) and N-[(4-hydroxy-3-methoxy-phenyl)methyl]-2,4-dimethoxy-benzamide (compound 5) on the bitter taste of peptides was examined in a panel of experts (n=15) in randomized duo-tests. Therefore, solutions of bitter peptides in water with or without the addition of the exemplary substances were tasted and the perceived bitter taste was evaluated on a scale from 0 (not bitter) to 10 (extremely bitter).

[2] = Masking of the bitter taste of peptides, panel of experts (n=15), randomized duo-tests: Trp-Trp-Trp; conditions: for Bitter taste peptide solution + 100 ppm compound: Trp-Trp-Trp 0.01% (w/v) in water, scale 0 to 10; for Reduction of bitterness (%): Trp-Trp-Trp 0.01% (w/v), 100 ppm compound, negative = less bitter
Protocol: as §1

[3] = Masking of the bitter taste of peptides, panel of experts (n=15), randomized duo-tests: Arg-Pro; conditions: for Bitter taste peptide solution + 100 ppm compound: Arg-Pro 0.1% (w/v) in water, scale 0 (not bitter) to 10 (extremely bitter); for Reduction of bitterness (%): Arg-Pro 0.1% (w/v), 100 ppm compound, negative = less bitter
Protocol: as §1

[4] = Masking of the bitter taste of peptides; conditions: 100 ppm; compound 1: plurality of peptides, except Leu-Trp and Glu-Leu-Leu
Protocol: as §1

[5] = Masking of the bitter taste of peptides, panel of experts (n=15), randomized duo-tests: Glu-Leu-Leu (comparative example); conditions: for Reduction of bitterness (%): Glu-Leu-Leu 0.2% (w/v) (comparative peptide), 100 ppm compound, negative = less bitter; for Bitter taste peptide solution + 100 ppm compound: Glu-Leu-Leu 0.2% (w/v) in water (comparative peptide), scale 0 to 10
Protocol: as §1

[6] = Masking of the bitter taste of whey protein hydrolysate solution, panel of experts (n=8), randomized duo-tests; conditions: base 3% (w/v) whey protein hydrolysate in water; 100 ppm compound 1; aroma 1.6% (w/v) in the combination
Protocol: The bitter masking effect of 2,4-dihydroxy-N-[(4-hydroxy-3-methoxy-phenyl)methyl]benzamide (compound 1) on the bitter taste of whey protein hydrolysate was tested in a panel of experts [n=8] for a solution of 3% (w/v) of a commercially available whey protein hydrolysate (BioZate 3 of the company Davisco) in randomized duo-tests. The perceived bitter taste was evaluated on a scale from 0 [not bitter] to 10 [extremely bitter]. For comparison, a combination of compound 1 with a usual bitter masking aroma was tested, to examine possible additive effects.

[7] = Masking of the bitterness of a mixture of bitter amino acids, panel of experts (n=13), randomized duo-test with nose clip; conditions: 100 ppm sample; for Reduction of bitterness in % compared to the mixture of amino acids: negative = less bitter, positive = more bitter; for Bitter taste amino acid mixture + sample: scale 0 [not bitter] to 10 [extremely bitter], n=13
Protocol: The masking effect of hydroxybenzoic acid amides (compounds 1-4) to be preferably used according to the invention as well as a comparative substance (compound 5) on a mixture of bitter amino acids (2 g/l L-Isoleucine; 3.5 g/l L-Leucine; 1 g/l L-Phenylalanine; 0.7 g/l L-Tryptophan in water) was evaluated by an panel of experts (n=13) (Evaluation 0 [not bitter] up to 10 [extremely bitter]). The tasting was performed with a nose clip, to exclude olfactory influences, and in a randomized duo-test. The bitterness of the mixture of amino acids was evaluated by the panel by 4.98±0,31 on a scale from 0 to 10.

[8] = Masking of the bitter taste of peptides, panel of experts (n=15), randomized duo-tests: Tyr-Pro-Phe-Pro; conditions: for Bitter taste peptide solution + 100 ppm compound: Tyr-Pro-Phe-Pro 0.1% (w/v) in water, scale 0 to 10; for Reduction of bitterness (%): Tyr-Pro-Phe-Pro 0.1% (w/v), 100 ppm compound, negative = less bitter
Protocol: as §1

With `COc1cc(CNC(=O)c2ccc(O)cc2O)ccc1O` [compound 1, 2,4-Dihydroxy-N-[(4-hydroxy-3-methoxy-phenyl)methyl]benzamide] the “Reduction of bitterness (%)” value [1] was −4%, the “Bitter taste peptide solution + 100 ppm compound” value [1] was 6.5 and the “Bitter taste peptide solution + 100 ppm compound” value [2] was 5.35. For the same molecule, the “Reduction of bitterness (%)” value [2] was −17.4%, the “Bitter taste peptide solution + 100 ppm compound” value [3] was 1.47 and the “Reduction of bitterness (%)” value [3] was −20.9%. The “Effect on the bitterness of the peptides (in words)” value [4] was “clear reduction of the bitterness”, the “Reduction of bitterness (%)” value [5] was −3.77% and the “Bitter taste peptide solution + 100 ppm compound” value [5] was 5.1. The “Reduction of the bitter taste [%]” value [6] was −24.5%, the “Reduction of bitterness in % compared to the mixture of amino acids” value (“Reduction of bitterness in %” for short) [7] was −25.9% and the “Bitter taste amino acid mixture + sample” value [7] was 3.90. For the same molecule, the “Bitter taste peptide solution + 100 ppm compound” value [8] was 3.43 and the “Reduction of bitterness (%)” value [8] was −23.3%.
For `COc1ccc(C(=O)NCc2ccc(O)c(OC)c2)c(OC)c1` [compound 5, N-[(4-hydroxy-3-methoxy-phenyl)methyl]-2,4-dimethoxy-benzamide, reference compound], the “Reduction of bitterness (%)” value [1] was 4.41%, the “Bitter taste peptide solution + 100 ppm compound” value [1] was 7.1 and the “Bitter taste peptide solution + 100 ppm compound” value [2] was 6.40. For the same molecule, the “Reduction of bitterness (%)” value [2] was −1.08%, the “Bitter taste peptide solution + 100 ppm compound” value [3] was 2.05 and the “Reduction of bitterness (%)” value [3] was 10.81%. For the same molecule, the “Effect on the bitterness of the peptides (in words)” value [4] was “not able to achieve a reduction of the bitterness”, the “Reduction of bitterness (%)” value [5] was 5.66% and the “Bitter taste peptide solution + 100 ppm compound” value [5] was 5.6. The “Reduction of bitterness in %” value [7] was 22.8%, the “Bitter taste amino acid mixture + sample” value [7] was 6.86 and the “Bitter taste peptide solution + 100 ppm compound” value [8] was 4.68. The “Reduction of bitterness (%)” value [8] was 4.46%.
In the case of `COc1cc(CNC(=O)c2ccccc2O)ccc1O` [compound 4, 2-Hydroxy-N-[(4-hydroxy-3-methoxy-phenyl)methyl]benzamide], the “Reduction of bitterness in %” value [7] is reported as −7.7% and the “Bitter taste amino acid mixture + sample” value [7] is reported as 4.74.
For `COc1cc(Cn2c(=O)oc3cc(O)cc(O)c3c2=O)ccc1O` [compound 2, 5,7-Dihydroxy-3-[(4-hydroxy-3-methoxy-phenyl)methyl]-1,3-benzoxazin-2,4-dione], the “Reduction of bitterness in %” value [7] was −30.3% and the “Bitter taste amino acid mixture + sample” value [7] was 3.20.
In the case of `COc1cc(CNC(=O)c2ccc(O)cc2)ccc1O` [compound 3, 4-Hydroxy-N-[(4-hydroxy-3-methoxy-phenyl)methyl]benzamide], the “Reduction of bitterness in %” value [7] is reported as −14.1% and the “Bitter taste amino acid mixture + sample” value [7] is reported as 4.11.
